# Measured values published in patent EP0471298B1, “Carbamoyl-1-(pyridinylalkyl)-1H-indoles, indolines and related analogs” (priority 1990, dated 1992).
# pIC50: −log10 of the molar value. Read-outs that look alike come from different tables or passages of the source.
# Target: T1, Acetylcholinesterase (AChE) (Rattus norvegicus, UniProt P37136)
# T1 construct: corpora striata dissected free, weighed and homogenized in 19 volumes; from tissue; host or cells: rat corpora striata (brain) homogenate, male Wistar rats
# T1 sequence (P37136 32-614): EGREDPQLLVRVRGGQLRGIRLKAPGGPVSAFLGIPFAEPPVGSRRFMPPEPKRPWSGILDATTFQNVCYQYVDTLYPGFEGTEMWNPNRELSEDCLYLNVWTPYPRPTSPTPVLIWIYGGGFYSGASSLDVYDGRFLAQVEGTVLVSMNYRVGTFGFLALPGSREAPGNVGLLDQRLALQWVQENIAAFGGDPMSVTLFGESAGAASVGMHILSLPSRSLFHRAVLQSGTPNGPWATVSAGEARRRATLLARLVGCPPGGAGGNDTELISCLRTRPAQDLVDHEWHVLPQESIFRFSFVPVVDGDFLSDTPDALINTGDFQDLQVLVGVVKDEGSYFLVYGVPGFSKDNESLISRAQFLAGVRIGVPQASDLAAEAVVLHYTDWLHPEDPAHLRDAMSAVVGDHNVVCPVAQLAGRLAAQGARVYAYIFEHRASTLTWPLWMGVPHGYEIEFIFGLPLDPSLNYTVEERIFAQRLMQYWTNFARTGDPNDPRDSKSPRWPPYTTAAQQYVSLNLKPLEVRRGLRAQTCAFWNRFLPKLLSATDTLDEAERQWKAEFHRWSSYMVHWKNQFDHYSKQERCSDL
# Assay: In vitro inhibition of acetylcholinesterase activity in rat striatum (modified Ellman method)
# Assay type: biochemical
# Description: Cholinesterases are found throughout the body, both in the brain and in serum. However, only brain acetylcholinesterease (AChE) distribution is correlated with central cholinergic innervation. […] We have determined in vitro inhibition of acetylcholinesterase activity in rat striatum according to the method described below.
# In Vitro Inhibition of Acetylcholinesterase Activity in Rat Striatum
# The method described below was used in this invention for assaying anticholinesterase activity. This is a modification of the method of Ellman et al., Biochem. Pharmacol. 7, 88 (1961).
# • A. Reagents - • 1. 0.05 M Phosphate buffer, pH 7.2 • (a) 6.85 g NaH₂PO₄·H₂O/100 mi distilled H₂O • (b) 13.40 g Na₂HPO₄·7H₂O/100 ml distilled H₂O • (c) add (a) to (b) until pH reaches 7.2 • (d) Dilute 1:10 • 2. […] If active, IC₅₀ values are determined from the inhibitory activity of subsequent concentrations. • B. Tissue Preparation - Male Wistar rats are decapitated, brains rapidly removed, corpora striata dissected free, weighed and homogenized in 19 volumes (approximately 7 mg protein/ml) of 0.05 M phosphate buffer, pH 7.2, using a Potter-Elvehjem homogenizer. […] Assay Enzyme activity is measured with the Beckman DU-50 spectrophotometer. […] This program also calculates the rate of absorbance change for each cuvette. […]
SMILES,pIC50,"pIC50 (Brain acetylcholinesterase, rat striatum homogenate, preincubated 10 minutes at 37°C, acetylthiocholine 5 mM final, pH 7.2, read-out: Inhibitory Concentration IC₅₀)"
"CNC(=O)Oc1ccc2c(ccn2Cc2ccncc2)c1 [Example 1, 1-(4-Pyridinylmethyl)-1H-indol-5-yl methylcarbamate]",5.17,–
"O=C(NCc1ccccc1)Oc1ccc2c(ccn2Cc2ccncc2)c1 [Example 3, 1-(4-Pyridinylmethyl)-1H-indol-5-yl phenylmethylcarbamate]",–,4.90
